Laboratory results: PubChem BioAssay (NCI)
Where “and” joins values, the source holds several entries; their conditions need not be identical. Identical values can stand only once.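 Cells were grown in 96-well plates and exposed to each compound for 48 hours at five concentrations; endpoints were interpolated linearly between bracketing concentrations, or set to the highest concentration if not reached. GI50 = concentration required for 50% inhibition of growth. The concentration for full growth arrest is given as TGI.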

Columns and labels:
Test in all cases: inhibition of tumour cell growth, NCI panel, 48 h
[1] = system: SK-MEL-28 melanoma
[2] = system: SK-MEL-2 melanoma
[3] = system: UACC-257 melanoma
[4] = system: U251 CNS
[5] = system: SF-539 CNS
[6] = system: SK-OV-3 ovarian
[7] = system: SW-620 colon
[8] = system: HT29 colon
[9] = system: DU-145 prostate
[10] = system: OVCAR-4 ovarian

Structure (SMILES)	GI50 [1] [µM]	TGI [1] [µM]	GI50 [2] [nM]	TGI [2]	GI50 [3] [µM]	TGI [3]	GI50 [4] [µM]	TGI [4]	GI50 [5] [µM]	TGI [5] [µM]	GI50 [6] [µM]	TGI [6] [µM]	GI50 [7] [nM]	TGI [7]	GI50 [8] [nM]	TGI [8]	GI50 [9] [µM]	TGI [9] [µM]	GI50 [10] [µM]	TGI [10]
Cc1cc(I)cc(CN(C)CCCCN2CCCCC2)c1O	4.21	15.8	13800	29.2 µM	4.2	15.1 µM	13.7	31.2 µM	12	25.1	18.3	42.4	13300	27.5 µM	3210	14.2 µM	26.8	> 100	28.3	> 100 µM
CC12CCC(O)CC1CCC1C2CCC2(C)C(C3=CC(=O)OC3)CCC12O (stereo not given)	–	33.7	–	22.7 µM	–	> 43.4 µM	–	27.8 µM	–	3.2	–	18.5	–	> 36.8 µM	–	13.6 µM	–	2.85	–	5.39 µM
CC/C=C\CCC/C=C1/C(=O)C=C[C@@H]1C/C=C\CCCC(=O)OC	3.25	10.3	2600	7.21 µM	7.55	20.5 µM	4.22	14.5 µM	3.49	12.9	14.9	29.4	4160	18.7 µM	2140	3.87 µM	8.67	21.1	4.27	16.4 µM
CCN(CCO)CC1CCCC2CCCCC21 (stereo not given)	–	> 100	–	> 100 µM	–	> 100 µM	–	> 100 µM	–	> 100	–	> 100	–	> 100 µM	–	> 100 µM	–	> 100	–	> 100 µM
CC(C)CCC[C@@H](C)[C@H]1CC[C@H]2[C@@H]3CC=C4C[C@@H](C(C(=O)O)C(=O)O)CC[C@]4(C)[C@H]3CC[C@]12C	0.143	0.469	224	0.613 µM	0.133	0.639 µM	0.129	0.408 µM	0.107	0.407	0.298	3.15	156	1.25 µM	224	1.06 µM	0.115	0.274	0.207	4.35 µM
CCCCCN(CCCCC)CCCNc1c2c(nc3ccc(Cl)cc13)CCCC2	3.74	13.8	2050	3.99 µM	2.19	4.52 µM	2.58	7.37 µM	3.6	13.2	4.08	13.8	1970	8.55 µM	501	7.01 µM	3.71	13.4	2.05	12 µM
NC(=O)c1cccc2cn(-c3ccc([C@@H]4CCCNC4)cc3)nc12	16.3	30.7	19700	39.3 µM	15.8	30.7 µM	12.6	29 µM	6.72	20.4	12.6	38.2	10400	51.3 µM	12900	32 µM	8.97	21.9	16.6	41.5 µM
CCCCC(=O)OCC(=O)[C@]1(O)Cc2c(O)c3c(c(O)c2[C@@H](OC2CC(NC(=O)C(F)(F)F)C(O)C(C)O2)C1)C(=O)c1c(OC)cccc1C3=O (stereo not given in full)	–	12.2	–	6.01 µM	–	8.08 µM	–	2.81 µM	–	2.98	–	1.73	–	> 52.4 µM	–	> 100 µM	–	2.44	–	8.71 µM
COC(=O)[C@@H]1[C@H](O)[C@H](C)[C@H](O)[C@@](C)(O)/C=C\C=C(C)C(=O)Nc2c(C)c(OC(C)=O)c3c(c2O)C(=O)C(C)=C2OCOC(=C23)C(C)=C[C@@](C)(O)[C@H](O)[C@@H](C)[C@H]1OC(C)=O	–	> 100	–	> 100 µM and 66.9 µM and 96.3 µM	35.2	> 100 µM and 66.9 µM and 93.1 µM	> 66.9	> 100 µM and > 66.9 µM and 62.8 µM	> 66.9	> 100	> 66.9	> 100	–	> 100 µM and 21 µM	–	> 100 µM and 66.9 µM	–	> 66.9	63.2	> 100 µM and 66.9 µM
COc1ccc2c(C3=C(c4cn(C)c5ccccc45)C(=O)NC3=O)cn(C)c2c1	0.166	> 25	597	> 9.97 µM	1.61	> 25 µM	0.102	> 25 µM	0.0556	0.134	0.138	> 25	104	> 25 µM	98	> 14 µM	0.137	> 25	0.258	> 25 µM
COc1cc(/C=N/NC(=O)c2ccc(C(F)(F)F)nc2Nc2ccc(Cl)cc2C)ccc1O	2.74	14.3	2140	11.9 µM	3.97	13.4 µM	2.09	10.6 µM	2.12	7.66	3.79	15.6	2770	12.1 µM	4450	16.2 µM	4.27	16.3	1.54	17 µM
COC1=CC(=O)c2nc(-c3ccncc3)[nH]c2C1=O	> 100	> 100	> 100000	> 100 µM	> 100	> 100 µM	> 100	> 100 µM	> 100	> 100	> 100	> 100	> 100000	> 100 µM	> 100000	> 100 µM	> 100	> 100	45.3	> 100 µM
